The test system of test [1] is KMS-12-BM (Plasma Cell Myeloma). Put plainly: Bliss excess, mean over the matrix (fraction); higher = more synergy. In outline: (§1)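 Bliss excess equals the observed combination effect minus the expected value EA + EB − EA·EB, where EA and EB are the effects of each agent alone. Combination Emax is the second-highest inhibition within the matrix. Inhibition was scaled from CellTiter-Glo 2.0 luminescence, with 0 set by vehicle wells and 1 by blank wells, after 72 hours of two-drug dosing of cells plated in 1536-well plates.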

Test [2] concerns NCI-H661 (Non-Small Cell Lung Carcinoma). The description is as above. In outline:
as §1

The subject of test [3] is SNU-398 (Hepatocellular Carcinoma). The description is as above. In outline: as §1
The test system of test [4] is MOLM-13 (Acute Myeloid Leukemia). The test is described as above. In outline: as §1
Test [5] concerns RPMI-8226 (Plasma Cell Myeloma). The description is as above. The essentials: as §1
Test [6] has as its system KY821 (Acute Myeloid Leukemia). The test is described as above. In outline: as §1
The test system of test [7] is COR-L279 (Small Cell Lung Carcinoma). The test is described as above. The essentials:
as §1

Test [8] has as its system KP-3 (Pancreatic Carcinoma). The description is as above. The essentials:
as §1

Test [9] deals with NCI-H520 (Squamous Cell Lung Carcinoma). The test is described as above. The essentials:
as §1

For a further test, the system named is NCI-H2731 (Mesothelioma). The description is as above. In outline: as §1
The test system of a further test is M059J (Glioblastoma). The test is described as above. The essentials: as §1
In test [10] the test system is ESO51 (Esophageal Adenocarcinoma). Described as above. The essentials:
as §1

Test [11] concerns NCI-H929 (Plasma Cell Myeloma). The description is as above. In outline: as §1
The subject of a further test is SJSA-1 (Osteosarcoma). The test is described as above. The essentials: as §1
The test system of test [12] is SU-DHL-5 (B-Cell Non-Hodgkin's Lymphoma). The description is as above. The essentials: as §1
The test system of test [13] is 8505C (Thyroid Gland Carcinoma). Described as above. In outline: as §1
Test [14] relates to JHH-4 (Hepatocellular Carcinoma). Described as above. The essentials: as §1
In a further test the test system is G-361 (Melanoma). The description is as above. In outline: as §1
Test [15] has as its system T-T (Esophageal Squamous Cell Carcinoma). The description is as above. The essentials: as §1
Test [16] deals with ST486 (Burkitt's Lymphoma). Put plainly: combination Emax (second highest fraction inhibited in the dose matrix, 72 h); higher = more inhibition; extreme values may be limits of the assay. The essentials: as §1

SMILES strings stand for the structures.

`CC1(C)CCC(CN2CCN(c3ccc(C(=O)NS(=O)(=O)c4ccc(NCC5CCOCC5)c([N+](=O)[O-])c4)c(Oc4cnc5[nH]ccc5c4)c3)CC2)=C(c2ccc(Cl)cc2)C1` [Venetoclax] + CCN(CCO)CCCOc1ccc2c(Nc3cc(CC(=O)Nc4cccc(F)c4)[nH]n3)ncnc2c1 [AZD2811] (first compound max 1 µM, 7x7, partner max 1 µM): the Bliss excess in [1] was 0.0773; in [2], -0.0105; in test [3], -0.0599; in [4], 0.0626; in [5] it was 0.0361; in test [6] it was 0.002. Moreover, the Bliss excess in test [7] is 0.0501; in test [8] it was -0.0316; in test [9], 0.0319; with NCI-H2731 (Mesothelioma), -0.021; in the test with M059J (Glioblastoma), -0.0687; in test [10] it was -0.0104. Besides, the Bliss excess was 0.101 in test [11]; -0.0214 in the test on SJSA-1 (Osteosarcoma); -0.125 in test [12]; -0.0133 in test [13]; -0.0152 in [14]; -0.0163 in the test on G-361 (Melanoma). In test [15], the Bliss excess came out at 0.0158. Also, in test [16], the “combination Emax” value came to 0.925.
With `CC1(C)CCC(CN2CCN(c3ccc(C(=O)NS(=O)(=O)c4ccc(NCC5CCOCC5)c([N+](=O)[O-])c4)c(Oc4cnc5[nH]ccc5c4)c3)CC2)=C(c2ccc(Cl)cc2)C1` [Venetoclax] + CN(C)CCCOc1ccc(-c2ccc3ncc4c(c3c2)n(C2CCOCC2)c(=O)n4C)cn1 [AZD0156] (first compound max 1 µM, 7x7, partner max 1 µM), the Bliss excess was 0.0078 in test [1]; 0.0037 in test [2]; -0.0081 in test [3]; -0.126 in test [4]; 0.0405 in test [5]; -0.0104 in test [6]. Further, the Bliss excess was 0.0043 in test [7]; -0.042 in test [8]; -0.048 in test [9]; -0.029 in the test with NCI-H2731 (Mesothelioma); -0.0173 in the test with M059J (Glioblastoma); -0.014 in [10]. In addition, the Bliss excess was 0.0294 in [11]; -0.0358 in the test with SJSA-1 (Osteosarcoma); 0.0045 in test [12]; 0.0155 in [13]; -0.0078 in test [14]; -0.0123 with G-361 (Melanoma). Further, the Bliss excess in test [15] worked out at 0.0197. Moreover, the “combination Emax” value in test [16] was 0.77.
For the molecule `CC1(C)CCC(CN2CCN(c3ccc(C(=O)NS(=O)(=O)c4ccc(NCC5CCOCC5)c([N+](=O)[O-])c4)c(Oc4cnc5[nH]ccc5c4)c3)CC2)=C(c2ccc(Cl)cc2)C1` [Venetoclax] + COc1cc(Nc2ncc3c(n2)-c2ccc(Cl)cc2C(c2c(F)cccc2OC)=NC3)ccc1C(=O)O [Alisertib] (first compound max 1 µM, 7x7, partner max 10 µM), the Bliss excess is 0.085 in test [1]; -0.0206 in [2]; -0.0219 in test [3]; 0.0371 in test [4]; 0.0721 in test [5]; 0.0079 in [6]. Besides, the Bliss excess is 0.103 in [7]; -0.0376 in [8]; -0.0425 in [9]; -0.0311 with NCI-H2731 (Mesothelioma); 0.0401 in the test with M059J (Glioblastoma); -0.0192 in test [10]. The Bliss excess in test [11] is 0.197; in the test on SJSA-1 (Osteosarcoma), -0.0583; in test [12] it was -0.003; in test [13], 0.0151; in test [14], -0.0328; in the test with G-361 (Melanoma), 0.0863. Moreover, the Bliss excess in test [15] amounted to 0.0325. In test [16], the “combination Emax” value turned out to be 0.909.
In the case of `CC1(C)CCC(CN2CCN(c3ccc(C(=O)NS(=O)(=O)c4ccc(NCC5CCOCC5)c([N+](=O)[O-])c4)c(Oc4cnc5[nH]ccc5c4)c3)CC2)=C(c2ccc(Cl)cc2)C1` [Venetoclax] + C[C@@H]1COCCN1C2=NC(=NC(=C2)C3(CC3)[S@](=N)(=O)C)C4=C5C=CNC5=NC=C4 [AZD6738] (first compound max 1 µM, 7x7, partner max 10 µM), the Bliss excess in [1] was -0.012; in test [2] it was -0.0698; in test [3] it was -0.0662; in test [4], 0.0068; in test [5], 0.0142; in test [6], -0.0336. Moreover, the Bliss excess in test [7] is 0.0287; in test [8] it was -0.0227; in test [9] it was -0.0733; in the test on NCI-H2731 (Mesothelioma), -0.0713; with M059J (Glioblastoma), -0.0258; in test [10], -0.0093. In addition, the Bliss excess is -0.0567 in test [11]; -0.0447 with SJSA-1 (Osteosarcoma); -0.0214 in test [12]; -0.0219 in [13]; -0.0399 in test [14]; -0.0132 in the test with G-361 (Melanoma). Besides, the Bliss excess in test [15] is -0.0286. For the same molecule, the “combination Emax” value in [16] is 0.861.
In the case of `CC1(C)CCC(CN2CCN(c3ccc(C(=O)NS(=O)(=O)c4ccc(NCC5CCOCC5)c([N+](=O)[O-])c4)c(Oc4cnc5[nH]ccc5c4)c3)CC2)=C(c2ccc(Cl)cc2)C1` [Venetoclax] + C[C@@H](Nc1cc(F)cc(F)c1)c1cc(C(=O)N(C)C)cc2c(=O)cc(N3CCOCC3)oc12 [AZD8186] (first compound max 1 µM, 7x7, partner max 3 µM), the Bliss excess in test [1] is 0.0494; in test [2] it was -0.0241; in [3], -0.0201; in test [4], 0.0046; in [5], 0.037; in test [6], 0.0235. Besides, the Bliss excess was 0.0138 in test [7]; -0.0376 in test [8]; -0.0637 in [9]; -0.0484 in the test on NCI-H2731 (Mesothelioma); -0.0141 in the test with M059J (Glioblastoma); 0.0204 in test [10]. Moreover, the Bliss excess was -0.007 in test [11]; -0.0247 in the test with SJSA-1 (Osteosarcoma); 0.0358 in test [12]; -0.024 in [13]; 0.0064 in [14]; 0.0075 with G-361 (Melanoma). The Bliss excess in [15] came out at 0.0094. Moreover, the “combination Emax” value in test [16] was determined as 0.695.
In the case of `CC1(C)CCC(CN2CCN(c3ccc(C(=O)NS(=O)(=O)c4ccc(NCC5CCOCC5)c([N+](=O)[O-])c4)c(Oc4cnc5[nH]ccc5c4)c3)CC2)=C(c2ccc(Cl)cc2)C1` [Venetoclax] + Cc1cc2ncnn2cc1Nc1ncc2c(n1)n(C1CCOCC1)c(=O)n2C [AZD7648] (first compound max 1 µM, 7x7, partner max 10 µM), the Bliss excess is 0.0378 in [1]; -0.0345 in test [2]; -0.0427 in [3]; 0.0014 in test [4]; 0.0285 in [5]; 0.056 in test [6]. The Bliss excess is -0.0405 in test [7]; -0.0358 in test [8]; 0.0114 in [9]; -0.0272 with NCI-H2731 (Mesothelioma); -0.0144 in the test with M059J (Glioblastoma); -0.0308 in test [10]. Also, the Bliss excess in [11] is 0.0418; in the test with SJSA-1 (Osteosarcoma), -0.0404; in [12] it was -0.0362; in [13], -0.0088; in test [14] it was -0.0059; with G-361 (Melanoma), -0.0147. Moreover, the Bliss excess in test [15] amounted to 0.0109. In test [16], the “combination Emax” value stood at 0.69.
Consider `CC1(C)CCC(CN2CCN(c3ccc(C(=O)NS(=O)(=O)c4ccc(NCC5CCOCC5)c([N+](=O)[O-])c4)c(Oc4cnc5[nH]ccc5c4)c3)CC2)=C(c2ccc(Cl)cc2)C1` [Venetoclax] + Cn1cnc2c(F)c(Nc3ccc(Br)cc3Cl)c(C(=O)NOCCO)cc21 [Selumetinib] (first compound max 1 µM, 7x7, partner max 3 µM), for which the Bliss excess in test [1] was -0.0118; in test [2], -0.0243; in test [3] it was -0.0003; in test [4], 0.0783; in [5], 0.0187; in test [6], 0.0329. In addition, the Bliss excess in test [7] was 0.0007; in test [8], -0.042; in test [9] it was -0.0351; in the test on NCI-H2731 (Mesothelioma), -0.0525; in the test on M059J (Glioblastoma), -0.0391; in [10], -0.0106. Besides, the Bliss excess in [11] was 0.027; in the test with SJSA-1 (Osteosarcoma), -0.0431; in test [12], 0.0355; in [13], -0.0184; in test [14], -0.0402; in the test on G-361 (Melanoma) it was -0.0154. For the same molecule, the Bliss excess in test [15] worked out at 0.009. Also, the “combination Emax” value in test [16] came to 0.754.

(Values after the supplement of paper PMC11061612.)
